Assay results as given in ChEMBL document CHEMBL3046561, “Feeding deterrents from Dictamnus dasycarpus Turcz against two stored-product insects” (J Agric Food Chem, 2002).

Legend:
[1] = system: Tribolium castaneum; test: Antifeedant activity against larvae of Tribolium castaneum (red flour beetle) assessed as efficiency of conversion of ingested food at 300 ppm after 3 days relative to control; settings: Instar larval stage, 72 h
[2] = system: Tribolium castaneum; test: Antifeedant activity against adult of Tribolium castaneum (red flour beetle) assessed as relative consumption rate at 10 ppm after 3 days relative to control; assay type: functional
[3] = system: Sitophilus zeamais; test: Antifeedant activity against adult of Sitophilus zeamais assessed as mortality at 3 ppm after 3 days relative to control; assay type: functional; settings: 72 h
[4] = system: Sitophilus zeamais; test: Antifeedant activity against adult of Sitophilus zeamais assessed as feeding deterrence index at 10 ppm after 3 days relative to control; assay type: functional
[5] = system: Tribolium castaneum; test: Antifeedant activity against larvae of Tribolium castaneum (red flour beetle) assessed as efficiency of conversion of ingested food at 30 ppm after 3 days relative to control; assay type: functional, Instar larval stage
[6] = system: Tribolium castaneum; test: Antifeedant activity against adult of Tribolium castaneum (red flour beetle) assessed as relative consumption rate at 100 ppm after 3 days relative to control; assay type: functional
[7] = system: Tribolium castaneum; test: Antifeedant activity against larvae of Tribolium castaneum (red flour beetle) assessed as efficiency of conversion of ingested food at 10 ppm after 3 days relative to control; assay type: functional, Instar larval stage
[8] = system: Sitophilus zeamais; test: Antifeedant activity against adult of Sitophilus zeamais assessed as relative consumption rate at 3 ppm after 3 days relative to control; assay type: functional
[9] = system: Sitophilus zeamais; test: Antifeedant activity against adult of Sitophilus zeamais assessed as efficiency of conversion of ingested food at 10 ppm after 3 days relative to control; assay type: functional
[10] = system: Tribolium castaneum; test: Antifeedant activity against adult of Tribolium castaneum (red flour beetle) assessed as mortality at 3 ppm after 3 days relative to control; assay type: functional; settings: 72 h
[11] = system: Sitophilus zeamais; test: Antifeedant activity against adult of Sitophilus zeamais assessed as mortality at 300 ppm after 3 days relative to control; assay type: functional; settings: 72 h
[12] = system: Tribolium castaneum; test: Antifeedant activity against adult of Tribolium castaneum (red flour beetle) assessed as mortality at 100 ppm after 3 days relative to control; assay type: functional; settings: 72 h
[13] = system: Tribolium castaneum; test: Antifeedant activity against larvae of Tribolium castaneum (red flour beetle) assessed as efficiency of conversion of ingested food at 3 ppm after 3 days relative to control; assay type: functional
[14] = system: Sitophilus zeamais; test: Antifeedant activity against adult of Sitophilus zeamais assessed as efficiency of conversion of ingested food at 300 ppm after 3 days relative to control; assay type: functional
[15] = system: Tribolium castaneum; test: Antifeedant activity against adult of Tribolium castaneum (red flour beetle) assessed as relative growth rate at 3 ppm after 3 days relative to control; assay type: functional
[16] = system: Tribolium castaneum; test: Antifeedant activity against adult of Tribolium castaneum (red flour beetle) assessed as mortality at 30 ppm after 3 days relative to control; assay type: functional; settings: 72 h
[17] = system: Tribolium castaneum; test: Antifeedant activity against adult of Tribolium castaneum (red flour beetle) assessed as feeding deterrence index at 10 ppm after 3 days relative to control; assay type: functional
[18] = system: Tribolium castaneum; test: Antifeedant activity against larvae of Tribolium castaneum (red flour beetle) assessed as mortality at 3 ppm after 3 days relative to control; assay type: functional; settings: 72 h
[19] = system: Sitophilus zeamais; test: Antifeedant activity against adult of Sitophilus zeamais assessed as mortality at 30 ppm after 3 days relative to control; assay type: functional; settings: 72 h
[20] = system: Tribolium castaneum; test: Antifeedant activity against adult of Tribolium castaneum (red flour beetle) assessed as mortality at 10 ppm after 3 days relative to control; assay type: functional; settings: 72 h
[21] = system: Sitophilus zeamais; test: Antifeedant activity against adult of Sitophilus zeamais assessed as mortality at 10 ppm after 3 days relative to control; assay type: functional; settings: 72 h
[22] = system: Tribolium castaneum; test: Antifeedant activity against adult of Tribolium castaneum (red flour beetle) assessed as efficiency of conversion of ingested food at 10 ppm after 3 days relative to control; assay type: functional
[23] = system: Tribolium castaneum; test: Antifeedant activity against larvae of Tribolium castaneum (red flour beetle) assessed as mortality at 300 ppm after 3 days relative to control; assay type: functional; settings: 72 h
[24] = system: Tribolium castaneum; test: Antifeedant activity against larvae of Tribolium castaneum (red flour beetle) assessed as efficiency of conversion of ingested food at 100 ppm after 3 days relative to control; assay type: functional, Instar larval stage
[25] = system: Sitophilus zeamais; test: Antifeedant activity against adult of Sitophilus zeamais assessed as efficiency of conversion of ingested food at 3 ppm after 3 days relative to control; assay type: functional
[26] = system: Tribolium castaneum; test: Antifeedant activity against adult of Tribolium castaneum (red flour beetle) assessed as relative growth rate at 30 ppm after 3 days relative to control; assay type: functional
[27] = system: Tribolium castaneum; test: Antifeedant activity against larvae of Tribolium castaneum (red flour beetle) assessed as relative growth rate at 100 ppm after 3 days relative to control; assay type: functional
[28] = system: Sitophilus zeamais; test: Antifeedant activity against adult of Sitophilus zeamais after 3 days; assay type: functional, organism-based
[29] = system: Tribolium castaneum; test: Antifeedant activity against larvae of Tribolium castaneum (red flour beetle) after 3 days; assay type: functional, organism-based
[30] = system: Tribolium castaneum; test: Antifeedant activity against adult of Tribolium castaneum (red flour beetle) after 3 days; assay type: functional, organism-based

Row | Compound | Activity [2] | mortality at 3 ppm [3] | FDI [4] | Activity [5] | Activity [6] | Activity [7] | Activity [8] | Activity [9] | mortality at 3 ppm [10] | mortality at 300 ppm [11] | mortality at 100 ppm [12] | Activity [13] | Activity [14] | Activity [15] | mortality at 30 ppm [16] | FDI [17] | mortality at 3 ppm [18] | mortality at 30 ppm [19] | mortality at 10 ppm [20] | mortality at 10 ppm [21] | other results
1 | COc1c2ccccc2nc2occc12 [DICTAMNINE] | 129.71 µg/mg/day | 0% | 17.87% | 20.53% | 59.8 µg/mg/day | 18.07% | 126.78 µg/mg/day | 10.42% | 0% | 0% | 0% | 19.8% | 6.81% | 29.56 µg/mg/day | 0% | 17.06% | 0% | 0% | 0% | 0% | mortality at 300 ppm [1]: 13.2%; Activity [22]: 19.91%; mortality at 300 ppm [23]: 4%; Activity [24]: 17.43%; Activity [25]: 9.1%
2 | CC1=C2C(=O)O[C@@H](c3ccoc3)[C@]2(C)CCC1 [FRAXINELLONE] | 120.94 µg/mg/day | 0% | 15.68% | 17.81% | 60.43 µg/mg/day | 20.9% | 133.85 µg/mg/day | 11.25% | 0% | 4% | 0% | 22.62% | 6.56% | 30.45 µg/mg/day | 0% | 18.64% | 0% | 2% | 0% | 0% | Activity [26]: 19.84 µg/mg/day; Activity [27]: 11.71 µg/mg/day; Activity [22]: 21.98%; mortality at 300 ppm [23]: 12%; Activity [24]: 13.65%; EC50 [28]: 71.2 ppm; EC50 [29]: 29.1 ppm; EC50 [30]: 36.4 ppm; Activity [25]: 11.41%
